In PubChem BioAssay AID1845197 (Molecular Pharmacology Branch, DTP, NCI, 2023):

Test system: 349418-098-R tumor spheroid viability
Assay: Anticancer human tumor 349418-098-R patient-derived lung adenocarcinoma cell line growth inhibition
Details: spheroids with HUVEC and MSC; for IC50: curve of first compound; for viability, T/C: stronger effect = lower value
Summary of the method: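 Single agents and combinations were tested on spheroids built from tumor cells plus HUVEC and hMSC, at half-log dilutions starting at or near clinical Cmax, else 10 microM; final DMSO 0.25% (v/v).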
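Also: spheroids exposed to compound for 7 days before measurement.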
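For viability, T/C in this document: percent of vehicle control viability with 100% = DMSO-treated spheroids.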

COc1cc(C)[nH]c(=O)c1CN1CCc2c(Cl)cc(C(OC)C3COC3)c(Cl)c2C1=O (stereo not given) + CC[C@@]1(O)C(=O)OCc2c1cc1n(c2=O)Cc2cc3c(CN(C)C)c(O)ccc3nc2-1
IC50 (second compound 0.003 µM): > 10000 nM | IC50 (second compound 0.00949 µM): > 10000 nM | IC50 (second compound 0.03 µM): 5480 nM | IC50 (second compound 0.0949 µM): < 31.6 nM | IC50 (second compound 0.3 µM): < 31.6 nM | viability, T/C (second compound 0.003 µM, first compound 0.0316 µM): 108% | viability, T/C (second compound 0.003 µM, first compound 0.1 µM): 123% | viability, T/C (second compound 0.003 µM, first compound 0.316 µM): 104% | viability, T/C (second compound 0.003 µM, first compound 1 µM): 109% | viability, T/C (second compound 0.003 µM, first compound 3.16 µM): 109% | viability, T/C (second compound 0.003 µM, first compound 10 µM): 114% | viability, T/C (second compound 0.00949 µM, first compound 0.0316 µM): 104% | viability, T/C (second compound 0.00949 µM, first compound 0.1 µM): 121% | viability, T/C (second compound 0.00949 µM, first compound 0.316 µM): 100% | viability, T/C (second compound 0.00949 µM, first compound 1 µM): 113% | viability, T/C (second compound 0.00949 µM, first compound 3.16 µM): 97.1% | viability, T/C (second compound 0.00949 µM, first compound 10 µM): 94.8% | viability, T/C (second compound 0.03 µM, first compound 0.0316 µM): 89.7% | viability, T/C (second compound 0.03 µM, first compound 0.1 µM): 73.8% | viability, T/C (second compound 0.03 µM, first compound 0.316 µM): 65.6% | viability, T/C (second compound 0.03 µM, first compound 1 µM): 71.8% | viability, T/C (second compound 0.03 µM, first compound 3.16 µM): 60.1% | viability, T/C (second compound 0.03 µM, first compound 10 µM): 40.5% | viability, T/C (second compound 0.0949 µM, first compound 0.0316 µM): 19.4% | viability, T/C (second compound 0.0949 µM, first compound 0.1 µM): 17.1% | viability, T/C (second compound 0.0949 µM, first compound 0.316 µM): 9.77% | viability, T/C (second compound 0.0949 µM, first compound 1 µM): 16% | viability, T/C (second compound 0.0949 µM, first compound 3.16 µM): 13.4% | viability, T/C (second compound 0.0949 µM, first compound 10 µM): 8.01% | viability, T/C (second compound 0.3 µM, first compound 0.0316 µM): 5.42% | viability, T/C (second compound 0.3 µM, first compound 0.1 µM): 4.95% | viability, T/C (second compound 0.3 µM, first compound 0.316 µM): 4.96% | viability, T/C (second compound 0.3 µM, first compound 1 µM): 3.5% | viability, T/C (second compound 0.3 µM, first compound 3.16 µM): 4.11% | viability, T/C (second compound 0.3 µM, first compound 10 µM): 5.21%

CNCc1ccc(-c2cc(-c3nc(-c4ccc(S(=O)(=O)C(C)C)cc4)cnc3N)on2)cc1 + CC[C@@]1(O)C(=O)OCc2c1cc1n(c2=O)Cc2cc3c(CN(C)C)c(O)ccc3nc2-1
IC50 (second compound 0.003 µM): 202 nM | IC50 (second compound 0.00949 µM): 160 nM | IC50 (second compound 0.03 µM): 147 nM | IC50 (second compound 0.0949 µM): < 9.49 nM | IC50 (second compound 0.3 µM): < 9.49 nM | viability, T/C (second compound 0.003 µM, first compound 0.00949 µM): 106% | viability, T/C (second compound 0.003 µM, first compound 0.03 µM): 96.8% | viability, T/C (second compound 0.003 µM, first compound 0.0949 µM): 95% | viability, T/C (second compound 0.003 µM, first compound 0.3 µM): 26.4% | viability, T/C (second compound 0.003 µM, first compound 0.949 µM): 6.42% | viability, T/C (second compound 0.003 µM, first compound 3 µM): 1.25% | viability, T/C (second compound 0.00949 µM, first compound 0.00949 µM): 103% | viability, T/C (second compound 0.00949 µM, first compound 0.03 µM): 96.3% | viability, T/C (second compound 0.00949 µM, first compound 0.0949 µM): 78.2% | viability, T/C (second compound 0.00949 µM, first compound 0.3 µM): 15.9% | viability, T/C (second compound 0.00949 µM, first compound 0.949 µM): 6.27% | viability, T/C (second compound 0.00949 µM, first compound 3 µM): 0.63% | viability, T/C (second compound 0.03 µM, first compound 0.00949 µM): 89.1% | viability, T/C (second compound 0.03 µM, first compound 0.03 µM): 83.9% | viability, T/C (second compound 0.03 µM, first compound 0.0949 µM): 74.5% | viability, T/C (second compound 0.03 µM, first compound 0.3 µM): 10.1% | viability, T/C (second compound 0.03 µM, first compound 0.949 µM): 3.96% | viability, T/C (second compound 0.03 µM, first compound 3 µM): 0.78% | viability, T/C (second compound 0.0949 µM, first compound 0.00949 µM): 25.5% | viability, T/C (second compound 0.0949 µM, first compound 0.03 µM): 22% | viability, T/C (second compound 0.0949 µM, first compound 0.0949 µM): 12.8% | viability, T/C (second compound 0.0949 µM, first compound 0.3 µM): 4.56% | viability, T/C (second compound 0.0949 µM, first compound 0.949 µM): 3.43% | viability, T/C (second compound 0.0949 µM, first compound 3 µM): 0.31% | viability, T/C (second compound 0.3 µM, first compound 0.00949 µM): 3.32% | viability, T/C (second compound 0.3 µM, first compound 0.03 µM): 4.32% | viability, T/C (second compound 0.3 µM, first compound 0.0949 µM): 3.68% | viability, T/C (second compound 0.3 µM, first compound 0.3 µM): 3.02% | viability, T/C (second compound 0.3 µM, first compound 0.949 µM): 2.18% | viability, T/C (second compound 0.3 µM, first compound 3 µM): 0.36%
